“Also recorded” adds a separate entry of the source.

Experiment [1] concerns cortical neurons. Kind of experiment: Neuronal apoptosis under basal, non-stimulated conditions. It is filed as cell-based, rat. Particulars: no bicuculline stimulation. On the procedure:
Under bicuculline incubation, the increased action potential-dependent synaptic release of glutamate may lead to activation of extrasynaptic NMDA receptors by glutamate spillover.
(§1) To visualize injured neurons, Hoechst-33342 (10 μg/ml) was added to the culture medium 20 h after treatments and incubated for 45 min at 37 °C. Images were taken with a Leica DMIRE2 fluorescence microscope. Quantitative assessment of neuronal apoptosis was performed 20 h following treatments using a Cell Death Detection […] Kit (Roche Applied Science). Absorbance readings were determined using a spectrophotometric microplate reader. Data analyses were carried out according to the manufacturer's instructions. Data are expressed as the difference in apoptosis relative to control and are expressed as a percentage.

Experiment [2] relates to NMDA receptors (NR2A- and NR2B-containing). Kind of experiment: Whole-cell currents evoked by NMDA in cultured cortical neurons. Format: cell-based, rat. The following applies: for percentage blockade of NMDA-induced currents, applied alone: NVP-AAM077 0.4 μM or Ro25-6981 0.5 μM bath applied alone, 10 μM glycine, 5 μM strychnine, -60 mV; for percentage blockade of NMDA-induced currents, applied alone / percentage blockade of NMDA-induced currents, applied after blockade by the other antagonist: 50 μM NMDA; for percentage blockade of NMDA-induced currents, applied after blockade by the other antagonist: sequential application, NVP-AAM077 0.4 μM, Ro25-6981 0.5 μM.

Experiment [3] has as its system cortical neurons. Kind of experiment: Apoptosis by NMDA after blockade of synaptic NMDA receptors (extrasynaptic receptors). Particulars: synaptic receptors blocked with MK-801 plus bicuculline; NMDA 50 μM plus 10 μM glycine 20 min; assayed 20 h after. Format: cell-based, rat. How it is done:
In accordance with various aspect of the invention, we have illustrated the role of extrasynaptic NR2A- and NR2B-containing receptors in mediating NMDA-induced cell survival and death. After a specific blockade of synaptic NMDA receptors and wash-out of bicuculline and MK-801, the neurons were treated with NMDA (50 μM plus 10 μM glycine) for 20 min in the absence or presence of NVP-AAM077 (0.4 μM) or Ro 25-6981 (0.5 μM). […] Thus, as with synaptic NMDA receptors, activation of extrasynaptic NR2A-containing receptors has a role in promoting cell survival, counteracting NR2B-containing receptor-mediated neuronal apoptosis. […]
To visualize injured neurons, Hoechst-33342 (10 μg/ml) was added to the culture medium 20 h after treatments and incubated for 45 min at 37 °C. Images were taken with a Leica DMIRE2 fluorescence microscope. Quantitative assessment of neuronal apoptosis was performed 20 h following treatments using a Cell Death Detection ELISAPLUS Kit (Roche Applied Science). Absorbance readings were determined using a spectrophotometric microplate reader. […] Data are expressed as the difference in apoptosis relative to control and are expressed as a percentage.

Experiment [4] concerns cortical neurons. Kind of experiment: NMDA-mediated excitotoxicity: neuronal apoptosis in cortical cultures. Particulars: 50 μM NMDA plus 10 μM glycine 20 min, assayed 20 h after; APV 50 μM, Ro25-6981 0.5 μM, NVP-AAM077 0.4 μM. It is filed as cell-based, rat. On the procedure: (§2) Mature neurons (11-14 DIV) were used for experiments.
as §1

Experiment [5] has as its system middle cerebral artery occlusion (MCAo). In words: MCAo focal ischemic stroke model, post-ischemic treatment. Format: in vivo, rat. Particulars: for effect of co-administration on the glycine effect (infarct volume reduction): co-administered with glycine 800 mg/kg 4.5 h after stroke onset. From the text: In some clinical settings, it is desirable to implement therapy after the onset of neuronal injury, such as stroke or other ischemic events.
Transient cerebral focal ischemia was produced by middle cerebral artery occlusion (MCAo) as described (Aarts et al., 2002; Bederson et al., 1986; Longa et al., 1989). Briefly, male Sprague-Dawley rats (Charles River Laboratories) weighing ˜300 g were anesthetized and MCAo was achieved by introducing a 3-0 monofilament suture into the MCA via the internal carotid artery. Body temperature was maintained at 37.0±0.5° C., and blood pressure and blood gases were monitored during the experiments. Animals were sacrificed 24 h following MCAo onset. Cerebral infarction was analyzed using brain sections stained with hematoxylin and eosin (H & E) or 2,3,5-triphenyltetrazolium chloride (TTC). 10 min before the animals were sacrificed, two tests, the postural reflex test to examine upper body posture (Bederson et al., 1986) and the forelimb placing test to examine sensorimotor integration in forelimb placing responses to visual, tactile, and proprioceptive stimuli (De Ryck et al., 1989), were performed to grade neurological function on a scale of 0 to 12 (0=normal, 12=worst). In the pretreatment study, a single bolus of drugs (NR2A-specific antagonist NVP-AAM077 (2.4 mg/kg) or NR2B specific antagonist Ro 25-6981 (6 mg/kg) or vehicle (saline)) was infused intravenously 30 min before a 1-h MCAo. For post-treatment experiments, animals were subjected to a 1.5-h MCAo and drug treatments (glycine, 800 mg/kg; NVP-AAM077 and Ro 25-6981 at the same doses as in the pretreatment study) were then given via intraperitoneal injection (i.p.) 3 h after reperfusion (4.5 h after the onset of MCAo).
The activating effect on NR2A-containing receptors was mimicked with the application of the NMDA receptor co-agonist glycine in the presence of an […] NR2B antagonist. Glycine by itself potentiates the function of NMDA receptors that are activated by endogenously released glutamate from presynaptic terminals both in vitro and in vivo (Johnson et al., 1987; Lu et al., 2001; De et al., 2000).

The subject of the next experiment is synaptic NMDA receptors. In words: mEPSC recording, NMDA receptor-mediated component. It is filed as cell-based, rat.
Experiment [6] has as its system cortical neurons. In words: Glycine pretreatment before NMDA-induced neuronal apoptosis. It is filed as cell-based, rat. Particulars: co-applied with glycine; NVP-AAM077 0.4 μM, Ro25-6981 0.5 μM. How it is done: as §2, §1

Regarding `C[C@@H](CN1CCC(Cc2ccccc2)CC1)[C@@H](O)c1ccc(O)cc1` (relative stereo) [Ro 25-6981, [R-(R*,S*)]-α-(4-Hydroxyphenyl)-β-methyl-4-(phenylmethyl)-1-piperidinepropanol], in the experiment on cortical neurons [1], the “effect on NVP-AAM077 (48 h)-induced apoptosis” value is “prevented” and the “neuronal apoptosis after incubation for 48 h” value was “did not increase neuronal apoptosis”. Also, in experiment [2], the “percentage blockade of NMDA-induced currents, applied alone” value is listed as 34.6%±1.8% and the “percentage blockade of NMDA-induced currents, applied after blockade by the other antagonist” value is recorded as 29.0%±3.3%. The “reduction in the percentage of NMDA current inhibition by Ro25-6981 following NVP-AAM077 blockade” value in experiment [2] (alone vs after NVP-AAM077 0.4 μM) came to 5.6%. Also, the “effect on apoptosis elicited by NMDA via extrasynaptic NMDA receptors” value in the experiment on cortical neurons [3] was “prevented”. For the same compound, in the experiment with cortical neurons [4], the “effect on NMDA-induced neuronal apoptosis/damage” value is listed as “prevented NMDA-induced neuronal apoptosis”. Further, the “effect of co-administration on the glycine effect (infarct volume reduction)” value (shortened to “effect … (infarct volume reduction)”) in experiment [5] was “resistant”. In addition, the “neuroprotection / total infarct volume compared with MCAo alone” value in experiment [5] (given 3 h after 1.5-h MCAo (4.5 h after stroke onset), MK801 1 mg/Kg, glycine 800 mg/Kg, Ro 25-6981 6 mg/Kg) is “did not provide any noticeable neuroprotection; also recorded: ineffectiveness”. For the same compound, the “effect on slow NMDA receptor-mediated component of mEPSCs” value in the experiment with synaptic NMDA receptors (-60 mV, zero added Mg2+, APV 50 μM, Ro 25-6981 0.5 μM) is “significantly reduced”. Moreover, in the experiment with synaptic NMDA receptors (Ro 25-6981 0.5 μM, n=5), the “NR2B-containing receptor-mediated (Ro 25-6981-sensitive) component of synaptic NMDA currents” value is given as 32.4±3.6%. In the experiment with cortical neurons [6], the “effect on the neuroprotective effect of glycine pretreatment” value is listed as “not by affected”.

As to `C[C@H](NC(c1cccc2[nH]c(=O)c(=O)[nH]c12)P(=O)(O)O)c1ccc(Br)cc1` (stereo partly shown) [NVP-AAM077], in the experiment on cortical neurons [1], the “neuronal apoptosis after incubation for 4 h” value is given as “failed to increase neuronal apoptosis” and the “neuronal apoptosis after incubation for 48 h” value was “significant increase in neuronal apoptosis”. Also, in experiment [2], the “percentage blockade of NMDA-induced currents, applied alone” value is 42.9%±5.9% and the “percentage blockade of NMDA-induced currents, applied after blockade by the other antagonist” value is reported as 43.4%±12.4%. In the experiment with cortical neurons [3], the “effect on apoptosis elicited by NMDA via extrasynaptic NMDA receptors” value is on record as “potentiated NMDA-mediated apoptosis”. Moreover, in the experiment on cortical neurons [4], the “effect on NMDA-induced neuronal apoptosis/damage” value is recorded as “significantly enhanced”. Besides, in experiment [5], the “effect … (infarct volume reduction)” value was “abolished; also recorded: prevented”. Besides, the “effect … (infarct volume reduction)” value in experiment [5] (listed as NVP-AAM066) is on record as “abolished the neuroprotection offered by glycine”. Also, the “effect on the remainder (non-NR2B) of the synaptic NMDA currents” value in the experiment on synaptic NMDA receptors (NVP-AAM077 0.4 μM, n=5) is “largely eliminated”. Moreover, the “effect on the neuroprotective effect of glycine pretreatment” value in the experiment with cortical neurons [6] is on record as “prevented”.

Values taken from patent publication US20130045991A1, “NEUROPROTECTIVE MODULATION OF NMDA RECEPTOR SUBTYPE ACTIVITIES” (THE UNIVERSITY OF BRITISH COLUMBIA, priority 2005, published 2013).
